Test results as given in patent publication US7951777B2, “Compositions and methods for treatment of cardiovascular disease” (Vectus Biosystems Limited, priority 2004, dated 2011).
Entries after “also recorded” stand apart in the source; their conditions may differ.

Columns and labels:
[1] = system: WKY rats on high salt diet; assay: Effect of VIP fragments on myocardial fibrosis; assay type: in vivo, rat; details: for degree of myocardial fibrosis: 5 pmol/kg/min for 4 weeks via Alzet minipump, compared with vehicle control, Masson Trichrome sections; for effectiveness on myocardial fibrosis relative to VIP: all peptides 5 pmol/kg/min for 4 weeks, FIGS. 8 to 10
From the text: To determine whether smaller VIP related peptides had any of the biological activities of the complete VIP molecule, particularly in reducing myocardial fibrosis, the degree of myocardial fibrosis after treatment with VIP(1-12) (SEQ ID No. 2) at 5 pmol/kg/min and VIP (6-28) (SEQ ID No. 3) at 5 pmol/kg/min for 4 weeks via Alzet minipump was compared with the complete VIP (5 pmol/kg/min) (SEQ ID No. 1) and vehicle control. The VIP fragments were purchased from Auspep (Melbourne, Australia).
Briefly, 14 week old WKY rats were commenced on high salt diet as described earlier. They underwent operative insertion of an Alzet minipump for infusion of VIP peptide or vehicle. After 4 weeks the rats were anaesthetised, the hearts harvested and myocardial fibrosis quantitated on Masson Trichrome sections using Image Pro Plus Version 5 (Cybernetics). […] FIGS. 8 to 10 show the results of these studies.

SHR and WKY rats = assay: Preliminary four-week VIP infusion in rat models of myocardial fibrosis; assay type: in vivo; details: VIP 7.2 nmol/kg/day via Alzet mini pump for four weeks, compared to control groups
From the text: Further preliminary experiments have been conducted on a number of animal models, which encompass a range of fibrous tissue replacement, varying from mild to moderate to severe. The experiments on the animal models encompassed a variety of aetiologies (alone and in combination) and a range of levels of induced fibrosis. For these experiments two types of rats were used, spontaneously hypertensive rats (SHR) and normotensive control Wistar-Kyoto rats (WKY). The WKY rats were given: 1) low salt diet, 2) high salt diet, or 3) L-NAME (ω-monomethyl-nitro-L-arginine; 10 mg/kg/day) plus high salt diet. The SHR rats were given low or high salt diets. The effect of VIP infusion in diabetic heart disease was also studied in the WKY rate with streptozotocin induced diabetes.
In each treatment group, rats were randomised to VIP (SEQ ID No. 1) or vehicle infusion (n=24 in each group) for four weeks. VIP was administered via Alzet mini pump at a rate of 7.2 nmol/kg/day.
After four weeks, the rats were anaesthetised and the hearts were harvested. Myocardial VIP concentrations and myocardial fibrosis were quantitated.

WKY rats = assay: Acute VIP infusion, uptake of VIP by the myocardium; assay type: in vivo, rat
Method: In preliminary studies a series of acute infusion experiments have been conducted in animal models.
Fourteen week old WKY rats were randomised to low salt diet (0.008%), intermediate salt diet (2.2%), high salt diet (4.4%) or high salt diet plus L-NAME (10 mg/kg/day) in the drinking water for 4 weeks (n=16 rats per group). On the day of the experiment the rats were anaesthetised and venous and arterial cannulae inserted. After a one hour rest equilibration period the rats were randomised to vehicle control (Haemaccell, Aventis) or VIP (10 pmol/kg/min) infusion (SEQ ID No. 1) for one hour at an infusion rate of 0.017 ml/min. The hearts were then harvested, myocardial VIP concentrations were measured and myocardial fibrosis quantitated.
The difference between the mean myocardial VIP concentrations after VIP or control infusion is a measure of VIP uptake by the heart.
(§1) VIP was measured by radioimmunoassay in known manner (see Davis R. E., Shelley S., Macdonald G. J. & Duggan K. A. (1992) The effects of a high sodium diet on the metabolism and secretion of vasoactive intestinal peptide in the rabbit. J. Physiol. 451:17-23. Duggan K. A., Ye V. Z. C., Jones D. M. Davis R. E. & Macdonald G. J. (1995) Effects of Endopeptidase 24.11 blockade on plasma and tissue concentrations of vasoactive intestinal peptide Clin. Sci. 89:267-271). […]

[2] = system: WKY rat fed a high salt diet; assay: VIP infusion in model of myocardial fibrosis: high salt diet; assay type: in vivo
Method: (§2) Three animal models of myocardial fibrosis were used (animals obtained from Australian Animal Resources, Perth, Western Australia, Australia) • i) WKY rat fed a high salt diet • ii) WKY rat fed a high salt diet and given L-NAME (ω-monomethyl-nitro-L-arginine, Sigma Chemical Co.) 10 mg/kg/day in the drinking water • iii) WKY rats with diabetes induced by streptozotocin injection 60 mg/kg
(§3) In each model the rats were randomised to VIP (H-[…]NH2, (SEQ ID No. 1) obtained from Auspep, Australia) or vehicle control (Haemaccel, Aventis) infusion for 4 weeks via Alzet minipump (n=6-8 each experimental group). The dose of VIP was 5 pmol/kg/min.
(§4) In models i) and ii) 14 week old WKY rats were commenced on high salt diet or high salt diet plus L-NAME. They underwent operative insertion of an Alzet minipump for infusion of VIP or vehicle. After 4 weeks the rats were anaesthetised and the hearts harvested. Myocardial VIP and myocardial fibrosis were quantitated.
(§5) Myocardial VIP concentrations and myocardial fibrosis were quantitated.
as §1

[3] = system: WKY rat fed a high salt diet and given L-NAME; assay: VIP infusion in model of myocardial fibrosis: high salt diet plus L-NAME; assay type: in vivo
Method: as §2, §3, §4, §5, §1

[4] = system: WKY rats with diabetes induced by streptozotocin injection; assay: VIP infusion in model of myocardial fibrosis: streptozotocin diabetes; assay type: in vivo, rat; details: VIP 5 pmol/kg/min for 4 weeks after 8 weeks of diabetes; FIG. 6
Method: as §2, §3
In model iii) rats were injected with streptozotocin 60 mg/kg at 14 weeks of age. After 8 weeks the diabetic rats were randomised to VIP infusion (5 pmol/kg/min) (SEQ ID No. 1) or no treatment. VIP was administered as above. […]
as §5, §1

isolated rat heart = details: heart perfused with VIP before ischaemia and reperfusion; cited from earlier work
[5] = system: isolated trabeculae from human hearts; details: atria and ventricles of hearts from previously healthy individuals; cited from earlier work
normal heart = details: cited from earlier work

Row | Compound | degree of myocardial fibrosis [1] | effectiveness on myocardial fibrosis relative to VIP [1] | myocardial fibrosis index (SHR and WKY rats) | difference between mean myocardial VIP concentrations after VIP or control infusion (VIP uptake by the heart) (WKY rats; VIP 10 pmol/kg/min for one hour, low, intermediate, high salt diet or high salt diet plus L-NAME, FIG. 1) | uptake of VIP by the heart from the plasma (WKY rats; acute infusion experiments in animal models with differing levels of fibrosis) | regression of existing myocardial fibrosis ([2]; VIP 5 pmol/kg/min 4 weeks, compared with untreated 14 week old rats, FIG. 4) | myocardial fibrosis index ([2]; VIP 5 pmol/kg/min for 4 weeks via Alzet minipump vs vehicle control, FIG. 2) | myocardial content of VIP ([2]; after four week intravenous infusion of VIP or vehicle control, FIG. 7A) | regression of existing myocardial fibrosis ([3]; VIP 5 pmol/kg/min 4 weeks, compared with untreated 14 week old rats, FIG. 5) | myocardial fibrosis index ([3]; VIP 5 pmol/kg/min for 4 weeks via Alzet minipump vs vehicle control, L-NAME 10 mg/kg/day, FIG. 3) | myocardial content of VIP ([3]; after four week intravenous infusion of VIP or vehicle control, FIG. 7B) | regression of existing myocardial fibrosis [4] | myocardial function (left ventricular functions, coronary flow, tissue injury) (isolated rat heart) | ionotropic effect [5] | uptake of injected VIP by the heart (normal heart)
1 | VIP(6-28): active fragment of VIP, residues 6-28, purchased from Auspep (FTDNYTRLRKQMAVKKYLNSILN; listed as Homo sapiens) | decreased the degree of myocardial fibrosis | as effective as VIP | – | – | – | – | – | – | – | – | – | – | – | – | –
2 | CC[C@H](C)[C@H](NC(=O)[C@H](CO)NC(=O)[C@H](CC(N)=O)NC(=O)[C@H](CC(C)C)NC(=O)[C@H](Cc1ccc(O)cc1)NC(=O)[C@H](CCCCN)NC(=O)[C@H](CCCCN)NC(=O)[C@@H](NC(=O)[C@H](C)NC(=O)[C@H](CCSC)NC(=O)[C@H](CCC(N)=O)NC(=O)[C@H](CCCCN)NC(=O)[C@H](CCCNC(=N)N)NC(=O)[C@H](CC(C)C)NC(=O)[C@H](CCCNC(=N)N)NC(=O)[C@@H](NC(=O)[C@H](Cc1ccc(O)cc1)NC(=O)[C@H](CC(N)=O)NC(=O)[C@H](CC(=O)O)NC(=O)[C@@H](NC(=O)[C@H](Cc1ccccc1)NC(=O)[C@@H](NC(=O)[C@H](C)NC(=O)[C@H](CC(=O)O)NC(=O)[C@H](CO)NC(=O)[C@@H](N)Cc1c[nH]cn1)C(C)C)[C@@H](C)O)[C@@H](C)O)C(C)C)C(=O)N[C@@H](CC(C)C)C(=O)N[C@@H](CC(N)=O)C(N)=O [VIP] | – | – | significantly lower | As fibrosis worsens the amount of VIP taken up by the heart increases; also recorded: increase as the degree of fibrosis increased | more avid with increasing degrees of fibrosis; also recorded: the higher the level of fibrosis, the greater the uptake of VIP by the heart | regression of myocardial fibrosis | significantly lower | clear association between the degree of fibrosis and uptake of exogenous VIP | regression of myocardial fibrosis | significantly lower | clear association between the degree of fibrosis and uptake of exogenous VIP | regression of myocardial fibrosis | significant improvement of myocardial function | direct positive ionotropic effect | not taken up by the normal heart
3 | VIP(1-12): active fragment of VIP, residues 1-12, purchased from Auspep (HSDAVFTDNYTR; listed as Homo sapiens) | decreased the degree of myocardial fibrosis | approximately ⅓ | – | – | – | – | – | – | – | – | – | – | – | – | –
